Each compound was assayed against SSTR4 (Homo sapiens (Human), UniProt P31391) (assay: Inhibition of forskolin stimulated cAMP in CHO-K1 cells overexpressing SSTR4). Settings: not given.
Assay type: cell-based
Description: Inhibition of Forskolin Stimulated cAMP in Cells Overexpressing SSTR4
This cell-based assay measures the ability of compounds to inhibit forskolin stimulated cAMP in CHO-K1 cells overexpressing SSTR4. CHO-K1 cells overexpressing SSTR4 (CHO-SSTR4) are purchased from DiscoveRx (product code 95-0059C2). The CHO-SSTR4 cells are maintained in F12K media with 10% Fetal Bovine Serum (Hyclone), 1% Pen/Strep (Life Technologies), and 800 μg/mL G418 (Life Technologies). […] The next day, the culture media is removed from the cells and the cells are washed (added then removed) with Kreb's Ringer Buffer (ZenBio, KRB-1000 mL). […] The cells are incubated in […] for 30 minutes at room temperature. Cellular cAMP levels are detected with a HTRF LANCE Ultra cAMP kit (Perkin Elmer, catalog number TRF0264).
The assay is performed in accordance with the manufacturer's instructions. Five μL of diluted Eu-W8044 labeled streptavidin (dilution: 1:50 in cAMP Detection Buffer) is added to each well. Then 5 μL of diluted biotin cAMP (dilution: 1:150 in cAMP Detection Buffer) is added to each well. The plates are covered and allowed to incubate for 60 minutes at room temperature on a shaker. […] The pEC50 values are generated using Activity Base for Screening Data Management.

SSTR4, sequence (P31391 whole entry): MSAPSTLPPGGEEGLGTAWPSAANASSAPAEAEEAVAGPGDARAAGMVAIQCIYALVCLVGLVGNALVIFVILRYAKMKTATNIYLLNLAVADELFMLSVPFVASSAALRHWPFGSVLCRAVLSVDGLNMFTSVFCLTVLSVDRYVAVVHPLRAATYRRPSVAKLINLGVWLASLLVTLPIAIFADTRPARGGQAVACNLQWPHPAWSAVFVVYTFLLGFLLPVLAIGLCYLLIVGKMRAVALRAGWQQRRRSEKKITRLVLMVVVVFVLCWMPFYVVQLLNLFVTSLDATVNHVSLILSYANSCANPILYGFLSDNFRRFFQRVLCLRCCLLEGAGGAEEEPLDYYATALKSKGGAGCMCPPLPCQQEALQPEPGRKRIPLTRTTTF

First: Cc1cccnc1OCC1(C(=O)NC2CCN(C)CC2)CC1 [Example 63, N-(1-methylpiperidin-4-yl)-1-(((3-methylpyridin-2-yl)oxy)methyl)cyclopropane-1-carboxamide]
Second: CN1CCC(NC(=O)C(C)(C)COc2ncccc2Cl)CC1 [Example 38, 3-((3-chloropyridin-2-yl)oxy)-2,2-dimethyl-N-(1-methylpiperidin-4-yl)propanamide]
The “SSTR4 Activity pEC50” value of the first is lower: 5.8 for the first, 7.0 for the second.

Compared with `CN1CCC(NC(=O)C(C)(C)COc2ncccc2C(F)(F)F)CC1(C)C` (stereo not drawn) [Example 132, 2,2-dimethyl-3-((3-(trifluoromethyl)pyridin-2-yl)oxy)-N-(1,2,2-trimethylpiperidin-4-yl)propanamide], `CN1CC(NC(=O)C(C)(C)COc2ncccc2C(F)(F)F)CC1(C)C` (stereo not drawn) [Example 35, 2,2-dimethyl-3-((3-(trifluoromethyl)pyridin-2-yl)oxy)-N-(1,5,5-trimethylpyrrolidin-3-yl)propanamide] is lower in “SSTR4 Activity pEC50” value: 7.1 for the first, 6.5 for the second.

Compared with `CCc1cccnc1OCC(C)(C)C(=O)NC1CCN(C)CC1` [Example 85, 3-((3-ethylpyridin-2-yl)oxy)-2,2-dimethyl-N-(1-methylpiperidin-4-yl)propanamide], `CCc1nccnc1OCC(C)(C)C(=O)NC1CCN(C)CC1` [Example 87, 3-((3-ethylpyrazin-2-yl)oxy)-2,2-dimethyl-N-(1-methylpiperidin-4-yl)propanamide] is lower in “SSTR4 Activity pEC50” value: 7.1 for the first, 6.4 for the second.

Going from `CC[C@H]1CN(C)CC[C@@H]1NC(=O)C(C)(C)COc1ncccc1C(F)(F)F` [Example 145, N-((3S,4S)-3-ethyl-1-methylpiperidin-4-yl)-2,2-dimethyl-3-((3-(trifluoromethyl)pyridin-2-yl)oxy)propanamide] to `C[C@@H]1CN(C)CC[C@H]1NC(=O)C(C)(C)COc1ncccc1C(F)(F)F` (single isomer, unassigned) [Example 106], the “SSTR4 Activity pEC50” value falls from 6.2 to 6.0.

`CN1CCC(NC(=O)C(C)(C)COc2ccc(Cl)cc2)CC1` [Example 217, 3-(4-chlorophenoxy)-2,2-dimethyl-N-(1-methylpiperidin-4-yl)propanamide] and `CN1CCC(NC(=O)C(C)(C)COc2nccc(Cl)c2F)CC1` [Example 44, 3-((4-chloro-3-fluoropyridin-2-yl)oxy)-2,2-dimethyl-N-(1-methylpiperidin-4-yl)propanamide] are within 0.2 log units of each other in “SSTR4 Activity pEC50” value: 5.8 for the first, 5.9 for the second.

Going from `Cc1cnc(OCC(C)(C)C(=O)N[C@H]2CCN(C)C[C@H]2C)c(C)c1` (relative stereo) [Example 32, cis-N-(1,3-dimethylpiperidin-4-yl)-3-((3,5-dimethylpyridin-2-yl)oxy)-2,2-dimethylpropanamide] to `Cc1cnc(OCC(C)(C)C(=O)N[C@H]2CCN(C)C[C@@H]2F)c(C)c1` [Example 122, 3-((3,5-dimethylpyridin-2-yl)oxy)-N-((3S,4S)-3-fluoro-1-methylpiperidin-4-yl)-2,2-dimethylpropanamide], the “SSTR4 Activity pEC50” value rises from 5.8 to 6.6.

Going from `Cc1cccnc1OCC(F)(F)C(=O)N[C@@H]1CCN(C)[C@H](C)C1` [Example 205, N-((2R,4R)-1,2-dimethylpiperidin-4-yl)-2,2-difluoro-3-((3-methylpyridin-2-yl)oxy)propanamide] to `Cc1cccnc1OCC(C)(C)C(=O)N[C@@H]1CCN(C)C[C@H]1C` [Example 142, N-((3R,4R)-1,3-dimethylpiperidin-4-yl)-2,2-dimethyl-3-((3-methylpyridin-2-yl)oxy)propanamide], the “SSTR4 Activity pEC50” value falls from 6.9 to 6.1.

First: CN1CCC(NC(=O)C(C)(C)COc2ccncc2C(F)(F)F)CC1 [Example 43, 2,2-dimethyl-N-(1-methylpiperidin-4-yl)-3-((3-(trifluoromethyl)pyridin-4-yl)oxy)propanamide]
Second: CN1CCC(NC(=O)C(C)(C)COc2cnccc2C(F)(F)F)CC1 [Example 42, 2,2-dimethyl-N-(1-methylpiperidin-4-yl)-3-((4-(trifluoromethyl)pyridin-3-yl)oxy)propanamide]
The “SSTR4 Activity pEC50” value of the first is lower: 6.9 for the first, 7.2 for the second.

Going from `CN1CCC(NC(=O)C(C)(C)COc2nnc(Cl)cc2C(F)(F)F)CC1` [Example 98, 3-((6-chloro-4-(trifluoromethyl)pyridazin-3-yl)oxy)-2,2-dimethyl-N-(1-methylpiperidin-4-yl)propanamide] to `CN1CCC(NC(=O)C(C)(C)COc2ccc(C#N)cc2C(F)(F)F)CC1` [Example 73, 3-(4-cyano-2-(trifluoromethyl)phenoxy)-2,2-dimethyl-N-(1-methylpiperidin-4-yl)propanamide], the “SSTR4 Activity pEC50” value rises from 6.2 to 7.0.

Compared with `CN1CCC(NC(=O)C(C)(C)COc2ncncc2C2CC2)CC1` [Example 5, 3-((5-cyclopropylpyrimidin-4-yl)oxy)-2,2-dimethyl-N-(1-methylpiperidin-4-yl)propanamide], `CN1CC[C@@H](NC(=O)C(C)(C)COc2ncncc2C2CC2)C1` [Example 4, (R)-3-((5-cyclopropylpyrimidin-4-yl)oxy)-2,2-dimethyl-N-(1-methylpyrrolidin-3-yl)propanamide] is lower in “SSTR4 Activity pEC50” value: 6.8 for the first, 6.5 for the second.

Compared with `CC(C)(COc1ncccc1C(F)(F)F)C(=O)NC1CCNCC1(F)F` (stereo not drawn) [Example 159, N-(3,3-difluoropiperidin-4-yl)-2,2-dimethyl-3-((3-(trifluoromethyl)pyridin-2-yl)oxy)propanamide], `CC(C)(COc1ncccc1C(F)(F)F)C(=O)NC1CNCC1(F)F` (stereo not drawn) [Example 131, N-(4,4-difluoropyrrolidin-3-yl)-2,2-dimethyl-3-((3-(trifluoromethyl)pyridin-2-yl)oxy)propanamide] is lower in “SSTR4 Activity pEC50” value: 6.7 for the first, 6.1 for the second.

First: CN1CCC(NC(=O)C(C)(C)COc2ncccc2C(F)(F)F)C(Cl)C1 (stereo not drawn) [Example 120, N-(3-chloro-1-methylpiperidin-4-yl)-2,2-dimethyl-3-((3-(trifluoromethyl)pyridin-2-yl)oxy)propanamide]
Second: CC(C)[C@@H]1CN(C)CC[C@@H]1NC(=O)C(C)(C)COc1ncccc1C(F)(F)F (relative stereo) [Example 34, cis-N-(3-isopropyl-1-methylpiperidin-4-yl)-2,2-dimethyl-3-((3-(trifluoromethyl)pyridin-2-yl)oxy)propanamide]
The “SSTR4 Activity pEC50” value of the first is lower: 5.9 for the first, 6.1 for the second.

`CN1CCC(NC(=O)C(C)(C)COc2cccc3c2CCC3)CC1` [Example 79, 3-((2,3-dihydro-1H-inden-4-yl)oxy)-2,2-dimethyl-N-(1-methylpiperidin-4-yl)propanamide] and `Cc1ccc(C2CC2)c(OCC(C)(C)C(=O)NC2CCN(C)CC2)n1` [Example 9, 3-((3-cyclopropyl-6-methylpyridin-2-yl)oxy)-2,2-dimethyl-N-(1-methylpiperidin-4-yl)propanamide] are within 0.2 log units of each other in “SSTR4 Activity pEC50” value: 7.0 for the first, 7.1 for the second.

Compared with `C[C@@H]1CN(C)CC[C@H]1NC(=O)C(F)(F)COc1ncccc1C(F)(F)F` (relative stereo) [Example 189, trans-N-(1,3-dimethylpiperidin-4-yl)-2,2-difluoro-3-((3-(trifluoromethyl)pyridin-2-yl)oxy)propanamide], `CN1CCC(NC(=O)C(C)(C)COc2ncccc2C(F)(F)F)C(F)(F)C1` (stereo not drawn) [Example 118, N-(3,3-difluoro-1-methylpiperidin-4-yl)-2,2-dimethyl-3-((3-(trifluoromethyl)pyridin-2-yl)oxy)propanamide] is lower in “SSTR4 Activity pEC50” value: 6.8 for the first, 6.2 for the second.

With `CN1CCC(NC(=O)C(C)(C)COc2ncc(F)cc2Cl)CC1` [Example 45, 3-((3-chloro-5-fluoropyridin-2-yl)oxy)-2,2-dimethyl-N-(1-methylpiperidin-4-yl)propanamide] the “SSTR4 Activity pEC50” value was 5.8.

Same assay, conditions: read-out: SSTR4 Activity pEC50 (converted)

Going from `Cc1cnc(OCC(C)(C)C(=O)N[C@@H]2CN(C)C[C@H]2C)c(C)c1` (relative stereo) [Example 183, 3-((3,5-dimethylpyridin-2-yl)oxy)-N-(trans-1,4-dimethylpyrrolidin-3-yl)-2,2-dimethylpropanamide] to `Cc1cccnc1OCC(C)(C)C(=O)N[C@@H]1CN(C)C[C@H]1c1ccc(Cl)cc1` (relative stereo) [Example 55, trans-N-(4-(4-chlorophenyl)-1-methylpyrrolidin-3-yl)-2,2-dimethyl-3-((3-methylpyridin-2-yl)oxy)propanamide], the EC50 falls from 251 nM to 31.6 nM (7.9-fold).

First: CC(C)(COc1ncccc1C(F)(F)F)C(=O)O[C@@H]1CCNC[C@H]1c1ccccc1 (relative stereo) [Example 171, trans-3-phenylpiperidin-4-yl 2,2-dimethyl-3-((3-(trifluoromethyl)pyridin-2-yl)oxy)propanoate]
Second: C[C@@H]1CN(C)CC[C@@H]1NC(=O)C(C)(C)COc1ncccc1C1CC1 (racemic) [Example 21, cis-3-((3-cyclopropylpyridin-2-yl)oxy)-N-(1,3-dimethylpiperidin-4-yl)-2,2-dimethylpropanamide]
The EC50 of the first is 13-fold higher: 316 nM for the first, 25.1 nM for the second.

From US11045457B2, “Piperidinyl-3-(aryloxy)propanamides and propanoates” (priority 2018, dated 2021)
